One test deals with T1, rat B1R (Rattus norvegicus, UniProt P97583).
T1 construct: expressed in transfected cells; host or cells: CHO K1 cells (stably transfected)
T1 sequence (P97583 1-337): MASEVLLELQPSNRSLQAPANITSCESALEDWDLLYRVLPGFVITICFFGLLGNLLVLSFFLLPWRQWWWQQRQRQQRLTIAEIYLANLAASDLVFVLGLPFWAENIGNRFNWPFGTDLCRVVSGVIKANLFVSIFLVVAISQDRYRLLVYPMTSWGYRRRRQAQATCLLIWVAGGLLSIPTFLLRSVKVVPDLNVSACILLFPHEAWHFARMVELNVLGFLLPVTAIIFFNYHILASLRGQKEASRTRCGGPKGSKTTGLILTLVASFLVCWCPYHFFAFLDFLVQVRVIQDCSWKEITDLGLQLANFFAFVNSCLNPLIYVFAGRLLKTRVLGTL
The test can be described thus: Functional investigation on the bradykinin 1 receptor, cell-based fluorescent calcium-mobilization assay (FLIPR), rat. To be noted: 10 μM test substance; CHO K1 cells transfected with rat B1R gene; agonist Des-Arg9-bradykinin at EC80; % of maximum achievable inhibition. The procedure: (§1) The agonistic or antagonistic action of substances can be quantified on the bradykinin 1 receptor (B1R) of the human and rat species with ectopically expressing cell lines (CHO K1 cells) and with the aid of a Ca2+-sensitive dye (Fluo-4) using a fluorescent imaging plate reader (FLIPR). The value in % activation is based on the Ca2+ signal after addition of Lys-Des-Arg9 bradykinin (0.5 nM) or Des-Arg9 bradykinin (100 nM). Antagonists lead to a suppression of the Ca2+ influx following administration of the agonist. The % inhibition in comparison with the maximum achievable inhibition is indicated.
(§2) The agonistic or antagonistic action of substances can be determined on the bradykinin 1 receptor (B1R) of humans and rats by means of a cell-based fluorescent calcium-mobilization assay. According to this assay agonist-induced increase of intracellular free Ca^2+ is quantified by means of a Ca^2+-sensitive dye (Fluo-4 type, Molecular Probes Europe BV, Leiden, Netherlands), in a Fluorescent Imaging Plate Reader (FLIPR, Molecular Devices, Sunnyvale, USA) and/or the Novostar (BMG Labtech GmbH, Offenburg, Germany).
(§3) Chinese hamster ovary cells (CHO K1 cells), which are stably transfected with the human B1R gene (hB1R cells), or with the B1R gene of rats (rB1R cells) are used. For functional investigations these cells are seeded into black 96-well plates with a clear bottom (BD Biosciences, Heidelberg, Germany or Greiner, Frickenhausen, Germany) in a density of 20,000-35,000 cells/well. The cells are incubated overnight in a humidified atmosphere at 37° C. and 5% CO2 in culture medium (hB1R cells: Nutrient Mixture Ham's F12, Gibco Invitrogen GmbH, Karlsruhe, Germany or DMEM, Sigma-Aldrich, Taufkirchen, Germany; rB1R cells: D-MEM/F12, Gibco Invitrogen GmbH, Karlsruhe, Germany) with 10 vol. % FBS (foetal bovine serum, Gibco Invitrogen GmbH, Karlsruhe, Germany). On the following day the cells are loaded with the Ca^2+-sensitive dye Fluo-4-AM (Molecular Probes Europe BV, Leiden, Netherlands):
(§4) Method A: The medium of the cells is removed and cell plates are incubated with loading solution, which contains 2.13 μM Fluo-4-AM, 2.5 mM probenecid (Sigma-Aldrich, Taufkirchen, Germany), and 10 mM HEPES (Sigma-Aldrich, Taufkirchen, Germany) in HBSS buffer (Hank's buffered saline solution, Gibco Invitrogen GmbH, Karlsruhe, Germany) for 60 minutes at 37° C. After the plates are washed twice with HBSS buffer, HBSS buffer supplemented 0.1% BSA (bovine serum albumin; Sigma-Aldrich, Taufkirchen, Germany), 5.6 mM glucose and 0.05% gelatine (Merck KGaA, Darmstadt, Germany) is added. Cell plates are incubated for at least 20 minutes in the dark at room temperature before they are used for the Ca^2+ measurement in the FLIPR or Novostar. Method B: The plates are washed with buffer A (15 mM HEPES, 80 mM NaCl, 5 mM KCl, 1.2 mM CaCl2, 0.7 mM MgSO4, 2 mg/ml glucose, 2.5 mM probenecid) and subsequently loaded with buffer A containing 2.4 μM Fluo-4-AM and 0.025% pluronic F127 (Sigma-Aldrich, Taufkirchen, Germany) for 60 minutes at 37° C. Cell plates are washed twice with buffer A. Then, buffer A supplemented with 0.05% BSA and 0.05% gelatine is added and cell plates are incubated in the dark at room temperature for at least 20 minutes before measurement in the FLIPR or Novostar is started.
(§5) The Ca^2+-dependent fluorescence is measured both before and after the addition of substances (λex=488 nm, λem=540 nm). For quantification of the effect the highest fluorescence intensity (FC, fluorescence counts) over time is given.
(§6) The FLIPR protocol consists of two substance additions, done within the instrument while continuously monitoring the Ca^2+-dependent fluorescence at 540 nm. When the Novostar was used, one addition had to be done outside the instrument. First of all test substances (10 μM) are pipetted onto the cells and the intracellular Ca^2+ rise is compared with the control (hB1R: Lys-Des-Arg9-bradykinin >=50 nM; rB1R: Des-Arg9-bradykinin >=1 μM). […]

A further test has as its target T2, human B1R (Homo sapiens, UniProt P46663).
T2 construct: expressed in transfected cells; host or cells: CHO K1 cells (stably transfected)
T2 sequence (P46663 1-353): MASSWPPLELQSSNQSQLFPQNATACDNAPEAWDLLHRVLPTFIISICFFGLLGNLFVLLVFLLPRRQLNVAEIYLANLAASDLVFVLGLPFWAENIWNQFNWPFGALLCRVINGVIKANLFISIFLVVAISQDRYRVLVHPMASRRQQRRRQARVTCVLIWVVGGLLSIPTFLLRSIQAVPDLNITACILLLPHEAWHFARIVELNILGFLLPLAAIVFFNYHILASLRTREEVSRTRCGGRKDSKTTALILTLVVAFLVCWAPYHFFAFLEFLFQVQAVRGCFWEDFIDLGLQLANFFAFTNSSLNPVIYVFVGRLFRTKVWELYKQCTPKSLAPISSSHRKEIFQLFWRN
The test can be described thus: Functional investigation on the bradykinin 1 receptor, cell-based fluorescent calcium-mobilization assay (FLIPR), human. To be noted: 10 μM test substance; CHO K1 cells transfected with human B1R gene; agonist Lys-Des-Arg9-bradykinin at EC80; % of maximum achievable inhibition. The procedure:
as §1, §2, §3, §4, §5, §6

Inhibition data for three compounds are collected here from patent US20120058999A1, “Substituted Tetrahydropyrrolopyrazine Compounds” (Gruenenthal GmbH, priority 2010, published 2012).

The term inhibition denotes the change of the read-out against control, counted positive when it falls.

Structures are written as SMILES.

In the case of `COc1cc(C)c(S(=O)(=O)N2CCn3cccc3C2COCC(=O)N(C)C2CC(N3CCN(C)CC3)C2)c(C)c1` (stereo not drawn) [CC-58, 2-[[2-[(4-Methoxy-2,6-dimethyl-phenyl)sulfonyl]-1,2,3,4-tetrahydro-pyrrolo[1,2-a]pyrazin-1-yl]-methoxy]-N-methyl-N-[3-(4-methyl-piperazin-1-yl)-cyclobutyl]-acetamide], the inhibition at 10 µM is 88% on rat B1R and 38% on human B1R.
The matching figures for `COc1cc(C)c(S(=O)(=O)N2CCn3cccc3C2CCCC(=O)N(C)[C@H]2CCC[C@@H](N3CCN(C)CC3)C2)c(C)c1` (relative stereo) [CC-02, 4-[2-[(4-Methoxy-2,6-dimethyl-phenyl)sulfonyl]-1,2,3,4-tetrahydro-pyrrolo[1,2-a]pyrazin-1-yl]-N-methyl-N-[cis-3-(4-methyl-piperazin-1-yl)-cyclohexyl]-butyramide]: 104% and 87%.
Take `CN1CCN([C@@H]2CCC[C@H](N(C)C(=O)CCC3c4cccn4CCN3S(=O)(=O)c3cccc(C(F)(F)F)c3)C2)CC1` (relative stereo) [CC-05, N-Methyl-N-[cis-3-(4-methyl-piperazin-1-yl)-cyclohexyl]-3-[2-[[3-(trifluoromethyl)phenyl]sulfonyl]-1,2,3,4-tetrahydro-pyrrolo[1,2-a]pyrazin-1-yl]-propionamide]: the inhibition at 10 µM was 91% on rat B1R and 43% on human B1R.
